Assay results from paper PMC11079024, “Identification of a family of species-selective complex I inhibitors as potential anthelmintics” (Nature Communications, 2024).

System: L1 wild-type C. elegans
Assay: not given
Conditions: 50 μM; […]; KCN survival assay; hit = relative motility below 0.25

Structure (SMILES) | Screen "Hit"
Nc1nc2ccccc2n1Cc1ccc(Cl)cc1 [Compound 5652765] | Y (hits were identified as compounds that reduced relative motility below 0.25 (75% reduction))

Same assay, conditions: 50 μM; […]; hit = relative motility below 0.25 3 hours after removal of KCN

Structure (SMILES) | Screen "Hit"
Cc1ccc(SCCCn2cnc3ccccc32)cc1 [Compound 7926035] | Y (hits were identified as compounds that reduced relative motility below 0.25 (75% reduction))

Same assay, conditions: Dose 0.2 µM; mean of at least three biological replicates

Structure (SMILES) | C. elegans KCN Survival
Cc1ccc(SCCCn2cnc3ccccc32)cc1 [Compound 7926035] | 0.990
Nc1nc2ccccc2n1Cc1ccc(Cl)cc1 [Compound 5652765] | 0.973

Same assay, conditions: Dose 0.39 µM

Structure (SMILES) | C. elegans KCN Survival
Cc1ccc(SCCCn2cnc3ccccc32)cc1 [Compound 7926035] | 0.961
Nc1nc2ccccc2n1Cc1ccc(Cl)cc1 [Compound 5652765] | 1.034

Same assay, conditions: Dose 1.56 µM

Structure (SMILES) | C. elegans KCN Survival
Cc1ccc(SCCCn2cnc3ccccc32)cc1 [Compound 7926035] | 0.929
Nc1nc2ccccc2n1Cc1ccc(Cl)cc1 [Compound 5652765] | 1.067

Same assay, conditions: Dose 3.13 µM

Structure (SMILES) | C. elegans KCN Survival
Cc1ccc(SCCCn2cnc3ccccc32)cc1 [Compound 7926035] | 0.707
Nc1nc2ccccc2n1Cc1ccc(Cl)cc1 [Compound 5652765] | 1.051

Same assay, conditions: Dose 6.25 µM

Structure (SMILES) | C. elegans KCN Survival
Cc1ccc(SCCCn2cnc3ccccc32)cc1 [Compound 7926035] | 0.388
Nc1nc2ccccc2n1Cc1ccc(Cl)cc1 [Compound 5652765] | 1.001

Same assay, conditions: Dose 12.5 µM

Structure (SMILES) | C. elegans KCN Survival
Cc1ccc(SCCCn2cnc3ccccc32)cc1 [Compound 7926035] | 0.123
Nc1nc2ccccc2n1Cc1ccc(Cl)cc1 [Compound 5652765] | 0.758

Same assay, conditions: Dose 25 µM

Structure (SMILES) | C. elegans KCN Survival
Cc1ccc(SCCCn2cnc3ccccc32)cc1 [Compound 7926035] | 0.118
Nc1nc2ccccc2n1Cc1ccc(Cl)cc1 [Compound 5652765] | 0.271

Same assay, conditions: Dose 50 µM

Structure (SMILES) | C. elegans KCN Survival
Cc1ccc(SCCCn2cnc3ccccc32)cc1 [Compound 7926035] | 0.139
Nc1nc2ccccc2n1Cc1ccc(Cl)cc1 [Compound 5652765] | 0.140

Same assay, conditions: Dose 100 µM

Structure (SMILES) | C. elegans KCN Survival
Cc1ccc(SCCCn2cnc3ccccc32)cc1 [Compound 7926035] | 0.184
Nc1nc2ccccc2n1Cc1ccc(Cl)cc1 [Compound 5652765] | 0.216

Target: C. elegans (N2) complex I (NADH:ubiquinone oxidoreductase) (Caenorhabditis elegans, UniProt P24887+Q93873+Q94360)
Assay: biochemical
Type: biochemical
Conditions: Dose 0.0001 µM; read-out: C. elegans mitochondrial complex I activity
Outline: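 Activity expressed as percent of solvent control. Complex I rate came from DCIP reduction at 600 nm (initial linear slope, 15 min) with NADH and decylubiquinone as substrates, plus antimycin A and KCN, in pH 7.5 KPi/BSA buffer. Isolated, thrice freeze-thawed mitochondria used at 0.2 mg/mL.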

Sequence of C. elegans (N2) complex I (NADH:ubiquinone oxidoreductase) (Q94360 17-199): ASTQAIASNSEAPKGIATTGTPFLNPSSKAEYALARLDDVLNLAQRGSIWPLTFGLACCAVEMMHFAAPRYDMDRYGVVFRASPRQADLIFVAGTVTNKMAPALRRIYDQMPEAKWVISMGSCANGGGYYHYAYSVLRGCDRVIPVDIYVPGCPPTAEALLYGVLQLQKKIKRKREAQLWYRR
Sequence of C. elegans (N2) complex I (NADH:ubiquinone oxidoreductase) (P24887 whole entry): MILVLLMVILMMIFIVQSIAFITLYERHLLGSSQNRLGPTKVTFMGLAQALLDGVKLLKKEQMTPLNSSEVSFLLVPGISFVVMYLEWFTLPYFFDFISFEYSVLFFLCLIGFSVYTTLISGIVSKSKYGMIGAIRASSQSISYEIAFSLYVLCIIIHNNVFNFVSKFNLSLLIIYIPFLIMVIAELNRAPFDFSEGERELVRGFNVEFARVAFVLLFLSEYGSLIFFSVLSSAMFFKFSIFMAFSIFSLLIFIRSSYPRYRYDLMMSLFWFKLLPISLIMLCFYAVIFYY
Sequence of C. elegans (N2) complex I (NADH:ubiquinone oxidoreductase) (Q93873 31-482): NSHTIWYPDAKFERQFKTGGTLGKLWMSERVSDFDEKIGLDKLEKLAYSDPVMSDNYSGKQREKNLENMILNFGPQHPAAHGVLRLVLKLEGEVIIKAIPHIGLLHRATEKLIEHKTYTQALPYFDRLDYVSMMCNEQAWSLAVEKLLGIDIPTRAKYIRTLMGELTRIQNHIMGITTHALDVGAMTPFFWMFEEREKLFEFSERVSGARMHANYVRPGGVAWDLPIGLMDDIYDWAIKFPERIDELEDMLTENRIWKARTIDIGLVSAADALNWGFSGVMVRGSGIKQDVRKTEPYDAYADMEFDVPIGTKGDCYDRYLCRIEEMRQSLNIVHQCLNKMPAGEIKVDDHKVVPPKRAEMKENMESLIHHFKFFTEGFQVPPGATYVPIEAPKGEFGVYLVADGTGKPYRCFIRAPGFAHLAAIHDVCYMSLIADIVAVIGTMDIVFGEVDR

Structure (SMILES) | activity at 0.0001 µM [%]
Cc1ccc(SCCCn2cnc3ccccc32)cc1 [Compound 7926035] | 90.2
Nc1nc2ccccc2n1Cc1ccc(Cl)cc1 [Compound 5652765] | 86.1

Same assay, conditions: Dose 0.0005 µM; read-out: C. elegans mitochondrial complex I activity

Structure (SMILES) | activity at 0.0005 µM [%]
Cc1ccc(SCCCn2cnc3ccccc32)cc1 [Compound 7926035] | 95.5
Nc1nc2ccccc2n1Cc1ccc(Cl)cc1 [Compound 5652765] | 92.1

Same assay, conditions: Dose 0.001 µM; read-out: C. elegans mitochondrial complex I activity

Structure (SMILES) | activity at 0.001 µM [%]
Cc1ccc(SCCCn2cnc3ccccc32)cc1 [Compound 7926035] | 88.3
Nc1nc2ccccc2n1Cc1ccc(Cl)cc1 [Compound 5652765] | 93.5

Same assay, conditions: Dose 0.0025 µM; read-out: C. elegans mitochondrial complex I activity

Structure (SMILES) | activity at 0.0025 µM [%]
Cc1ccc(SCCCn2cnc3ccccc32)cc1 [Compound 7926035] | 100
Nc1nc2ccccc2n1Cc1ccc(Cl)cc1 [Compound 5652765] | 93.8

Same assay, conditions: Dose 0.005 µM; read-out: C. elegans mitochondrial complex I activity

Structure (SMILES) | activity at 0.005 µM [%]
Cc1ccc(SCCCn2cnc3ccccc32)cc1 [Compound 7926035] | 101
Nc1nc2ccccc2n1Cc1ccc(Cl)cc1 [Compound 5652765] | 90.5

Same assay, conditions: Dose 0.013 µM; read-out: C. elegans mitochondrial complex I activity

Structure (SMILES) | activity at 0.013 µM [%]
Cc1ccc(SCCCn2cnc3ccccc32)cc1 [Compound 7926035] | 96.9
Nc1nc2ccccc2n1Cc1ccc(Cl)cc1 [Compound 5652765] | 90.4

Same assay, conditions: Dose 0.025 µM; read-out: C. elegans mitochondrial complex I activity

Structure (SMILES) | activity at 0.025 µM [%]
Cc1ccc(SCCCn2cnc3ccccc32)cc1 [Compound 7926035] | 95.3
Nc1nc2ccccc2n1Cc1ccc(Cl)cc1 [Compound 5652765] | 78.8

Same assay, conditions: Dose 0.063 µM; read-out: C. elegans mitochondrial complex I activity

Structure (SMILES) | activity at 0.063 µM [%]
Cc1ccc(SCCCn2cnc3ccccc32)cc1 [Compound 7926035] | 85.5
Nc1nc2ccccc2n1Cc1ccc(Cl)cc1 [Compound 5652765] | 76.6

Same assay, conditions: Dose 0.125 µM; read-out: C. elegans mitochondrial complex I activity

Structure (SMILES) | activity at 0.125 µM [%]
Cc1ccc(SCCCn2cnc3ccccc32)cc1 [Compound 7926035] | 96.1
Nc1nc2ccccc2n1Cc1ccc(Cl)cc1 [Compound 5652765] | 72.5

Same assay, conditions: Dose 0.313 µM; read-out: C. elegans mitochondrial complex I activity

Structure (SMILES) | activity at 0.313 µM [%]
Cc1ccc(SCCCn2cnc3ccccc32)cc1 [Compound 7926035] | 69.9
Nc1nc2ccccc2n1Cc1ccc(Cl)cc1 [Compound 5652765] | 39.7

Same assay, conditions: Dose 0.625 µM; read-out: C. elegans mitochondrial complex I activity

Structure (SMILES) | activity at 0.625 µM [%]
Cc1ccc(SCCCn2cnc3ccccc32)cc1 [Compound 7926035] | 33.2
Nc1nc2ccccc2n1Cc1ccc(Cl)cc1 [Compound 5652765] | 49.3

Same assay, conditions: Dose 1.5 µM; read-out: C. elegans mitochondrial complex I activity

Structure (SMILES) | activity at 1.5 µM [%]
Cc1ccc(SCCCn2cnc3ccccc32)cc1 [Compound 7926035] | 33.2
Nc1nc2ccccc2n1Cc1ccc(Cl)cc1 [Compound 5652765] | 25.2

Same assay, conditions: Dose 3 µM; read-out: C. elegans mitochondrial complex I activity

Structure (SMILES) | activity at 3 µM [%]
Cc1ccc(SCCCn2cnc3ccccc32)cc1 [Compound 7926035] | 8.58
Nc1nc2ccccc2n1Cc1ccc(Cl)cc1 [Compound 5652765] | 11.5

Same assay, conditions: Dose 15 µM; read-out: C. elegans mitochondrial complex I activity

Structure (SMILES) | activity at 15 µM [%]
Cc1ccc(SCCCn2cnc3ccccc32)cc1 [Compound 7926035] | 3.26
Nc1nc2ccccc2n1Cc1ccc(Cl)cc1 [Compound 5652765] | 0.44

Same assay, conditions: Dose 37.5 µM; read-out: C. elegans mitochondrial complex I activity

Structure (SMILES) | activity at 37.5 µM [%]
Cc1ccc(SCCCn2cnc3ccccc32)cc1 [Compound 7926035] | 1.04
Nc1nc2ccccc2n1Cc1ccc(Cl)cc1 [Compound 5652765] | 0.7

Same assay, conditions: Dose 75 µM; read-out: C. elegans mitochondrial complex I activity

Structure (SMILES) | activity at 75 µM [%]
Cc1ccc(SCCCn2cnc3ccccc32)cc1 [Compound 7926035] | 3.35
Nc1nc2ccccc2n1Cc1ccc(Cl)cc1 [Compound 5652765] | 0.75

Same assay, conditions: in vitro complex I dose response on C. elegans mitochondria; average of at least two biological replicates; fit in R (DRC); read-out: IC50 C. elegans complex I

Structure (SMILES) | IC50 [nM]
Cc1ccc(SCCCn2cnc3ccccc32)cc1 [Compound 7926035] | 540
Nc1nc2ccccc2n1Cc1ccc(Cl)cc1 [Compound 5652765] | 470

Same assay, conditions: log10 of IC50 in µM; C. elegans mitochondria

Structure (SMILES) | Log IC50 C. elegans complex I [µM]
Cc1ccc(SCCCn2cnc3ccccc32)cc1 [Compound 7926035] | -0.27
Nc1nc2ccccc2n1Cc1ccc(Cl)cc1 [Compound 5652765] | -0.33

Same assay, conditions: wild-type (N2) mitochondria; read-out: C. elegans Complex I IC50

Structure (SMILES) | IC50 [nM]
Nc1nc2ccccc2n1Cc1ccc(Cl)cc1 [Compound 5652765] | 470

Same assay, conditions: wild-type C. elegans mitochondria; estimated from fitted dose-response curves; read-out: C. elegans Complex I IC50

Structure (SMILES) | IC50 [nM]
Cc1ccc(SCCCn2cnc3ccccc32)cc1 [Compound 7926035] | 540
Nc1nc2ccccc2n1Cc1ccc(Cl)cc1 [Compound 5652765] | 470

System: not listed separately
Assay: in vitro
Conditions: human, HEK293 Cell Viability Assay LC50, HEK293 cells; estimated from fitted dose-response curves; mean of at least two biological replicates

Structure (SMILES) | CC50 at 2 days [nM]
Cc1ccc(SCCCn2cnc3ccccc32)cc1 [Compound 7926035] | 71400
Nc1nc2ccccc2n1Cc1ccc(Cl)cc1 [Compound 5652765] | 58900

Same assay, conditions: human, HEK293 cells (Flp-In-293), HEK293 viability, Dose 3.13 µM

Structure (SMILES) | viability at 2 days, 3.13 µM [%]
Cc1ccc(SCCCn2cnc3ccccc32)cc1 [Compound 7926035] | 90.8
Nc1nc2ccccc2n1Cc1ccc(Cl)cc1 [Compound 5652765] | 94.2

Same assay, conditions: human, HEK293 cells (Flp-In-293), HEK293 viability, Dose 6.25 µM

Structure (SMILES) | viability at 2 days, 6.25 µM [%]
Cc1ccc(SCCCn2cnc3ccccc32)cc1 [Compound 7926035] | 96.6
Nc1nc2ccccc2n1Cc1ccc(Cl)cc1 [Compound 5652765] | 94

Same assay, conditions: human, HEK293 cells (Flp-In-293), HEK293 viability, Dose 12.5 µM

Structure (SMILES) | viability at 2 days, 12.5 µM [%]
Cc1ccc(SCCCn2cnc3ccccc32)cc1 [Compound 7926035] | 98.4
Nc1nc2ccccc2n1Cc1ccc(Cl)cc1 [Compound 5652765] | 92.9

Same assay, conditions: human, HEK293 cells (Flp-In-293), HEK293 viability, Dose 25 µM

Structure (SMILES) | viability at 2 days, 25 µM [%]
Cc1ccc(SCCCn2cnc3ccccc32)cc1 [Compound 7926035] | 97.6
Nc1nc2ccccc2n1Cc1ccc(Cl)cc1 [Compound 5652765] | 94.5

Same assay, conditions: human, HEK293 cells (Flp-In-293), HEK293 viability, Dose 50 µM

Structure (SMILES) | viability at 2 days, 50 µM [%]
Cc1ccc(SCCCn2cnc3ccccc32)cc1 [Compound 7926035] | 65.6
Nc1nc2ccccc2n1Cc1ccc(Cl)cc1 [Compound 5652765] | 62.3

Same assay, conditions: human, HEK293 cells (Flp-In-293), HEK293 viability, Dose 100 µM

Structure (SMILES) | viability at 2 days, 100 µM [%]
Cc1ccc(SCCCn2cnc3ccccc32)cc1 [Compound 7926035] | 30.4
Nc1nc2ccccc2n1Cc1ccc(Cl)cc1 [Compound 5652765] | 10
